US20070149547A1, “Bipyridyl amides as modulators of metabotropic glutamate receptor-5” (priority 2004, published 2007)

Target: T1, hmGluR5a receptor (Homo sapiens, UniProt P41594)
T1 construct: expressed in transfected cells; host or cells: HEK293 cells (hm5a cell line)
Experiment: Calcium flux assay (fura-2, glutamate-evoked [Ca2+]i)
Format: cell-based
Details: assay not given; follows the calcium flux / PI statement; read-out: IC50 (mGluR5 inhibitory activity)
Experimental: The compounds of this invention were tested against the hmGluR5a receptor stably expressed in mouse fibroblast Ltk^− cells (the hmGluR5a/L38-20 cell line) and activity was detected by changes in [Ca^++]i, measured using the fluorescent Ca^++-sensitive dye, fura-2. InsP assays were performed in mouse fibroblast Ltk^− cells (LM5a cell line) stably expressing hmGluR5a. The assays described in International Patent Publication WO 0116121 can be used.
The activity of compounds was examined against the hmGluR5a receptor stably expressed in human embryonic kidney HEK293 cells (the hmGluR5a cell line designated hm5a). See generally Daggett et al., Neuropharmacology 34:871-886 (1995). Receptor activity was detected by changes in intracellular calcium ([Ca^2+]i) measured using the fluorescent calcium-sensitive dye, fura-2. The hm5a cells were plated onto 96-well plates, and loaded with 3 µM fura-2 for 1 h. Unincorporated dye was washed from the cells, and the cell plate was transferred to a 96-channel fluorimeter (SIBIA-SAIC, La Jolla, Calif.) which is integrated into a fully automated plate handling and liquid delivery system. Cells were excited at 350 and 385 nm with a xenon source combined with optical filters. Emitted light was collected from the sample through a dichroic mirror and a 510 nm interference filter and directed into a cooled CCD camera (Princeton Instruments). Image pairs were captured approximately every 1 s, and ratio images were generated after background subtraction. After a basal reading of 20 s, an EC80 concentration of glutamate (10 µM) was added to the well, and the response evaluated for another 60 s. The glutamate-evoked increase in [Ca′]i in the presence of the screening compound was compared to the response of glutamate alone (the positive control).

T1 sequence (P41594 21-1180 isoform P41594-2 limits assumed): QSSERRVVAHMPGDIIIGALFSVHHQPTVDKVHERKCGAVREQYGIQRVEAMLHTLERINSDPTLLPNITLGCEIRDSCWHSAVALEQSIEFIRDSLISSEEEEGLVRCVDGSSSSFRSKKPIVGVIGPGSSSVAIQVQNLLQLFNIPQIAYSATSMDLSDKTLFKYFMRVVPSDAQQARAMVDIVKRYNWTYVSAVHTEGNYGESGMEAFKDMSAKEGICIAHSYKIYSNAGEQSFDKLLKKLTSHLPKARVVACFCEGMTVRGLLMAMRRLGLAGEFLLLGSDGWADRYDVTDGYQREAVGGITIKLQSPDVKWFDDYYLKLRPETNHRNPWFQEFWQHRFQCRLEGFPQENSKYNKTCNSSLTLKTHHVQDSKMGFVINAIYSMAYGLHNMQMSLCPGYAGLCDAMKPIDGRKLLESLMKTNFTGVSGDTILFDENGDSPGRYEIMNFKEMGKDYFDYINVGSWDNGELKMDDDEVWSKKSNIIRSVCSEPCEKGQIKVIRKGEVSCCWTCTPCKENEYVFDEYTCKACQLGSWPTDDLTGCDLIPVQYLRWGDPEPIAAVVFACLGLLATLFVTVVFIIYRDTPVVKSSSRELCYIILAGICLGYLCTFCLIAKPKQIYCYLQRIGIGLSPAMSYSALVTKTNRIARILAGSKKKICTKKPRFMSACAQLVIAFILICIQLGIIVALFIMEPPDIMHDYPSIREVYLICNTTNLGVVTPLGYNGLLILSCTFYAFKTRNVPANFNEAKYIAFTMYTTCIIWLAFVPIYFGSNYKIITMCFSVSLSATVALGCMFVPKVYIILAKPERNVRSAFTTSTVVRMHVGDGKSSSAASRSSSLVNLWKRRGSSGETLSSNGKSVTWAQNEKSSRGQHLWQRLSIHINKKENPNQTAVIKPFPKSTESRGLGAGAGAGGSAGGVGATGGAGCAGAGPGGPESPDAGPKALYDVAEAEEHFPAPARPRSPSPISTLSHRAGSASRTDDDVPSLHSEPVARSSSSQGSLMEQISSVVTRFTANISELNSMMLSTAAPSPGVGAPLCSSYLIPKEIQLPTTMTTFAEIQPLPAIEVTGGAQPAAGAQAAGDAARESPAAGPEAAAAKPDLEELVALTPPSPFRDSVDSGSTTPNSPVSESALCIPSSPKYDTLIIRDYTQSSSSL

IC50 [nM] | SMILES
500 | N#Cc1cccc(NC(=O)c2nc(Cl)cnc2N)n1 [Example 29, 3-Amino-6-chloro-N-(6-cyanopyridin-2-yl)pyrazine-2-carboxamide]
1300 | Nc1nc(C(F)(F)F)cnc1C(=O)Nc1ccccn1 [Example 38, 3-Amino-N-pyridin-2-yl-5-(trifluoromethyl)pyrazine-2-carboxamide]
3000 | Cc1cccc(C(=O)Nc2cccc(-c3ccccc3)n2)n1 [Example 58, 6-Methyl-N-(6-phenylpyridin-2-yl)pyridine-2-carboxamide]
